# Activity calls are given as the source filed them.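 Rule for the calls: active = compounds giving half or more protection of infected cells from virus-caused growth loss, again on retest; inactive = the rest.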 Where a SMILES comes first, the peptide text is derived from it. The star is where a group is joined. Cbz = O=C(OCc1ccccc1)*; OBn = c1ccc(CO*)cc1
# Tested on: CEM cells HIV-1 protection, formazan growth assay
# Assay: NCI AIDS Antiviral Assay
# Conditions: for IC50: measured here: growth of uninfected CEM cells
# In short: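 Protection of CEM cells against HIV-1 was scored from cell growth (soluble formazan) across five concentrations, with parallel uninfected cells. Lack of protection may reflect toxicity.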
SMILES,EC50 [µM],IC50 [µM],outcome
CC(=O)Nc1ccc(S(=O)(=O)c2nnc(NC(C)=O)s2)cc1,> 741,331,
CCOC(=O)NC(C(=O)OCC)C(F)(F)F (stereo not drawn),> 200,102,
CCOC(=O)C(C(=O)c1ccccc1-c1ccccc1C(=O)O)=P(c1ccccc1)(c1ccccc1)c1ccccc1,> 229,43.7,
CSc1n[nH]c2n[nH]c(C)c12,> 200,105,
CC1=C(C(=O)CC(=O)C(=O)Nc2ccccc2C)Sc2ccccc2N1,> 19.5,> 19.5,
CSc1ncnc2c1ncn2CCC#N,> 200,> 200,
CC(C)[Si](OC12CCC(CC1O)CC2CO)(C(C)C)C(C)C (stereo not drawn),> 200,24.5,
N#CCCN(CCC#N)c1ccc(/C=C2\N=C(c3cc([N+](=O)[O-])ccc3Cl)N(S(=O)(=O)c3ccccc3)C2=O)cc1,> 12.3,> 12.3,
COc1nc(N)c(NC2OC(CO)C(O)C(O)C2O)c(=O)n1C (stereo not drawn),,,inactive
O=c1cc(CO)oc(C(O)c2ccccc2)c1O (stereo not drawn),> 200,> 200,
O=C1C2C3C=CC(O3)C2C(=O)N1/N=C/c1ccc2c(c1)OCO2 (stereo not drawn),> 200,> 200,
COc1cc2c(cc1OC)C13CCN4CC5CCOC6CC(=O)N2C1C6C5CC43 (stereo not drawn),> 200,> 200,
CC(=O)N1C(=O)/C(=C\C(=O)c2ccc([N+](=O)[O-])cc2)c2ccccc21,> 200,2.82,
Cc1nn(-c2ccccn2)c2ncnc(N)c12,> 200,162,
CN(C)C(=S)Sc1nsc(SC(=S)N(C)C)n1,> 200,> 200,
C[Si](C)(C)N1N=NC2C(=O)N(c3ccccc3)C(=O)C21 (stereo not drawn),> 200,> 200,
O=C(c1ccc(Cl)cc1)c1ccc(OCCCOc2ccc(C(=O)c3ccc(Cl)cc3)cc2)cc1,> 20,> 20,
COc1ccc(NC(=S)N/N=C/c2ccccn2)cc1,> 2,0.316,
CCCOC(=O)c1cc(OC(C)=O)c2c(OC)ccc(OC)c2c1,> 40.7,> 40.7,
O=CC1=CN2C(c3ccoc3)CCC(CO)C2CC1 (stereo not drawn),,,inactive
O=C(NNC(=O)/C(=C/c1cccc([N+](=O)[O-])c1)NC(=O)c1ccccc1)Nc1ccc(Cl)cc1,> 38.9,24.5,
O=C(CCC(=O)Nc1ccc(C2=NCCN2)cc1)Nc1ccc(C2=NCCN2)cc1,95.5,141,

SMILES,EC50 [µM],IC50 [µM],outcome
NC(=O)C(=CNC(=S)Nc1ccc(Cl)c(Cl)c1)C(N)=O,> 200,30.2,
Cn1c(=O)c2c(nc(NCC[N+](C)(C)Cc3ccc(Cl)cc3)n2C)n(C)c1=O,> 295,> 295,
O=C(O)C[n+]1ccccc1,148,> 200,
Clc1ccc(C2ON=C(c3ccccc3)N2C23CC4CC(CC(C4)C2)C3)c(Cl)c1 (stereo not drawn),> 200,> 200,
COc1ccc(C2c3cc4c(cc3OC3(OC)COC(=O)C23)OCO4)c(OC)c1 (stereo not drawn),> 100,4.68,
NC(CCC(=O)O)(C(=O)O)c1ccccc1 (stereo not drawn),> 200,> 200,
O=C1c2ccccc2C2(O)Nc3c(ccc4ccccc34)C12O (stereo not drawn),> 832,45.7,
CC(C)CCCC(C)[C@H]1CC[C@@H]2[C@H]3CC[C@H]4C[C@@H](CCC=C(c5cc(Cl)c(OCc6ccc([N+](=O)[O-])cc6)c(C(=O)OCc6ccc([N+](=O)[O-])cc6)c5)c5cc(Cl)c(OCc6ccc([N+](=O)[O-])cc6)c(C(=O)OCc6ccc([N+](=O)[O-])cc6)c5)CC[C@]4(C)[C@@H]3CC[C@]12C (stereo partly drawn),23.4,72.4,
CCOC(=O)/C(C#N)=C/c1ccc(N(C)C)cc1,> 77.6,> 77.6,
CN1N=C(c2ccncc2)OC1c1ccc(C(F)(F)F)cc1 (stereo not drawn),> 200,132,
NC1(C(=O)O)CCCC1c1ccccc1 (stereo not drawn),> 6.61,> 6.61,
c1ccc(CSc2nc3ccccc3nc2-c2cccs2)cc1,> 21.4,> 21.4,
CC(C)(c1ccc(OC#N)cc1)c1ccc(OC#N)cc1,> 67.6,> 67.6,
COC(=O)C(Cc1ccc(O)cc1)NC(=O)C(CC(=O)OCc1ccccc1)NC(=O)OCc1ccccc1 (stereo not drawn) (Cbz-Asp(OBn)-Tyr-OMe; configuration not given here),> 200,30.9,
CCOC(=O)CC(=O)C(=O)NNC1=NCCN1,> 200,> 200,
CC(=O)C1(Cc2cccc3ccccc23)S(=O)(=O)OCCOS1(=O)=O,> 200,110,
C/C=C1/C=CC2c3[nH]c4ccccc4c3CCN2C1 (stereo not drawn),> 145,93.3,
CCOC(=O)c1[nH]c(COC(C)=O)c2c1CCCCCCCCCC2,,,inactive
CCN1CCC(O)(c2ccc(Oc3ccc(F)cc3)cc2)C(C(=O)c2ccc(Oc3ccc(F)cc3)cc2)C1 (stereo not drawn),> 200,9.33,
CCCNC(=O)c1ccccc1C(=O)C(Cl)c1ccccc1 (stereo not drawn),> 214,> 214,
Oc1ccc2ccccc2c1NCn1nc(CCCCCCCCc2nn(CNc3c(O)ccc4ccccc34)c(=S)o2)oc1=S,> 200,37.2,

# — PubChem BioAssay AID179 (DTP/NCI, 2004)
